From article PMC10539800, “Small-molecule inhibitors of the PDZ domain of Dishevelled proteins interrupt Wnt signalling” (Magnetic resonance, 2021)
Where “and” joins values, the source holds several entries; their conditions need not be identical. Equal values may be shown once. Each block holds one compound with its values, some of them ahead of it.

Legend:
[1] = molecular target: T1, Dvl-3 PDZ (Homo sapiens, UniProt Q92997); assay: NMR 1H-15N HSQC chemical shift perturbation; type: binding; conditions: for Chemical shift perturbation ΔCSP: Dvl-3 PDZ, average of the three strongest shifting cross peaks
T1 construct: spectra of Dvl-3 PDZ in the absence and presence of the compound; His-tag (cleaved yes); made in house
T1 sequence (Q92997 243-336): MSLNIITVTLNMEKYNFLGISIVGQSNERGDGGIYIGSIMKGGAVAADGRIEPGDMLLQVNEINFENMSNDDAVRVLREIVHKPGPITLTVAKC
Experimental: The results of virtual screening were checked experimentally by comparing 2D ^1H-^15N HSQC (heteronuclear single quantum correlation) spectra of Dvl-3 PDZ in the absence and presence of the compound to elucidate ligand-induced changes of chemical shifts. Chemical shift perturbation differences ( Δ CSP, representing the average of the three strongest shifting cross peaks according to Eq. 1) were evaluated in cases where the residues responding strongest are inside the area defined by Fig. 1a. […] In most cases, the signals of residues S263, V287, and R320 (Fig. 1a) within the conserved binding site were most strongly perturbed (Fig. S2). With the Δ CSP of 0.12 ppm, the isoleucine-derived compound 1 ((2,3-dihydrobenzo[b][1,4]dioxin-6-yl)sulfonyl)-L-isoleucine containing a sulfonamide moiety was detected initially as one of the best “hits” according to chemical shift changes. The sulfonamide is a well-known moiety in drug discovery (Mathvink et al., 1999; Wu et al., 1999; Sleight et al., 1998; O'Brien et al., 2000; Tellew et al., 2003).
Two-dimensional ^1H-^15N HSQC spectra were used to screen a library of 212 compounds designed by the company Enamine for PDZ domains. 50 µM of ^15N -labelled protein samples was prepared in a 20 mM sodium phosphate buffer, containing 50 mM sodium chloride, 0.02 % ( w/v ) NaN3 , at pH 7.4. Stock solutions of small molecules were prepared in DMSO-d6 at a concentration of 160 mM. A ^1H-^15N HSQC spectrum of Dvl PDZ was acquired at 300 K with 5 % DMSO-d6 in the absence of ligand as reference spectrum. Mixtures of 16 compounds were added to ^15N -labelled Dvl PDZ at eightfold molar excess each. The final concentration of DMSO-d6 in the protein–ligand solutions was 5 %. Spectra were acquired with eight scans and 256 points in the indirect dimension. […] The active compound was obtained through successive deconvolution. Experiments were recorded on a Bruker DRX600 spectrometer equipped with a triple-resonance cryoprobe. The preparation of samples was done automatically by a Tecan Genesis RSP 150 pipetting robot. Spectra were analysed using the programs TOPSPIN and SPARKY (Goddard and Kneller, 2003).
50 µM of ^15N -labelled protein samples was prepared in a 20 mM sodium phosphate buffer containing 50 mM sodium chloride, 0.02 % ( w/v ) NaN3 , at pH 7.4. Stock solutions of small molecules were prepared in DMSO-d6 at a concentration of 160 mM. A ^1H-^15N HSQC spectrum of Dvl PDZ was acquired at 300 K with 5 % DMSO-d6 in the absence of ligand as reference spectrum. Mixtures of 16 compounds were added to ^15N -labelled Dvl PDZ at eightfold molar excess each. The final concentration of DMSO-d6 in the protein–ligand solutions was 5 %. Spectra were acquired with eight scans and 256 points in the indirect dimension.
The active compound was obtained through successive deconvolution. Experiments were recorded on a Bruker DRX600 spectrometer equipped with a triple-resonance cryoprobe. The preparation of samples was done automatically by a Tecan Genesis RSP 150 pipetting robot. Spectra were analysed using the programs TOPSPIN and SPARKY.

[2] = molecular target: T1, Dvl-3 PDZ; assay: Binding constant by isothermal titration calorimetry (ITC); conditions: for Kd: by ITC, one-site binding model, 25 °C, read-out: K D Dvl-3 PDZ; for n (stoichiometry) Dvl-3 PDZ: ITC one-site fit
Experimental: (§2) Isothermal titration calorimetry (ITC) experiments were performed using a VP-ITC system (MicroCal). Protein in 20 mM HEPES buffer and 50 mM NaCl (pH 7.4) was centrifuged and degassed before the experiment. A 200 µM ligand solution containing 2 % DMSO was injected 30 times in 10 µL aliquots at 120 s intervals with a stirring speed of 1000 rpm into a 1.4 mL sample cell containing the Dvl PDZ domain at a concentration of 20 µM at 25 ^∘ C. Control experiment was initially determined by titrating ligand into buffer at the same conditions. […] Thermodynamic properties and binding constants were determined by fitting the data with a non-linear least-squares routine using a single-site binding model with Origin (OriginLab) for ITC v.7.2 (MicroCal).

[3] = molecular target: T1, Dvl-3 PDZ; assay: Binding constant by NMR titration; conditions: by NMR; mean ± SD of at least six residues; read-out: K D Dvl-3 PDZ
Excerpt: (§1) K D is the equilibrium dissociation constant.

[4] = tested on: Dvl-3 PDZ; assay: Binding constant by NMR titration; design: species or system human; conditions: from NMR K D values
Excerpt: as §1

[5] = MTT cell viability assay; type: cell-based; conditions: human; HEK293 cells, 24 h after treatment; read-out: EC 50 cell viability
Experimental: These compounds were selected due to different substituents at the R 1 , including halogens. […] In this way, we aimed to develop both potent and less-toxic cell-permeable inhibitors. […] Their binding constants almost have the same value despite the different substituents (bromine or chlorine) at the pyrrole rings. […] Instead, a π – π stacking interaction with F259 was observed (Fig. S3i).
HEK293 cells were plated on a 96-well plate and treated with different concentrations of Dvl inhibitors. After 24 h treatment, 20 µL of MTT solution (5 mg mL ^-1 ) was added into each well. After 2 h incubation, cell culture medium was replaced with 50 µL DMSO, and the signal of the purple formazan, produced by living cells, was measured by a plate reader.

[6] = molecular target: T2, Dvl-1 PDZ (Homo sapiens, UniProt O14640, C338S/V250I); conditions: ITC
T2 sequence (O14640 245-338 V250I/C338S): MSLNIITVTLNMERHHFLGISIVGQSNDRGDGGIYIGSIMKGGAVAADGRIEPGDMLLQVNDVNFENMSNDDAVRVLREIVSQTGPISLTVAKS
Experimental: as §2

Compound: O=C(Cc1ccccc1)Nc1cccc(C(=O)Nc2ccccc2C(=O)O)c1 [CBC-322338/3289-8625, reference compound]
Chemical shift perturbation ΔCSP [1]: around 0.1 ppm
Kd ([1]; estimated from NMR CSP comparison and weak heat in ITC, read-out: binding affinity to Dvl-3): < 50 µM
binding to Dvl-3 PDZ (in words) ([2]; ITC): did not show
Kd [2]: > 400 µM

Compound: CC[C@H](C)[C@H](NS(=O)(=O)c1ccc2c(c1)OCCO2)C(=O)O [Compound 1, ((2,3-dihydrobenzo[b][1,4]dioxin-6-yl)sulfonyl)-L-isoleucine]
Chemical shift perturbation ΔCSP [1]: 0.12 ppm

Compound: CN1C(=O)Cc2cc(S(=O)(=O)Nc3ccc(F)cc3C(=O)O)ccc21 [Compound 2]
Chemical shift perturbation ΔCSP [1]: > 0.2 ppm

Compound: O=C(O)c1cc(F)ccc1NS(=O)(=O)c1ccc2c(c1)CCC2 [Compound 3]
Kd [3]: 80.6 ± 6.1 µM
discrimination between Dvl-3 PDZ and Dvl-1 PDZ (in words) [4]: did not distinguish
EC50 at 24 h [5]: 61 to 131 µM

Compound: Cc1ccc(S(=O)(=O)Nc2ccc(F)cc2C(=O)O)cc1C [Compound 4]
Kd [3]: 83.9 ± 7.8 µM
discrimination between Dvl-3 PDZ and Dvl-1 PDZ (in words) [4]: did not distinguish

Compound: CS(=O)(=O)Nc1ccc(F)cc1C(=O)O [Compound 6]
binding to Dvl-3 PDZ (in words) ([2]; ITC): millimolar (mM) range
Kd [2]: > 1000 µM

Compound: O=C(O)c1cc(Br)ccc1NS(=O)(=O)c1ccc2c(c1)CCCC2 [Compound 7]
Kd [3]: 20.6 ± 2.4 µM
EC50 at 24 h [5]: 61 to 131 µM

Compound: O=C(O)c1cc(C(F)(F)F)ccc1NS(=O)(=O)c1ccc2c(c1)CCCC2 [Compound 8, 2-(5,6,7,8-Tetrahydronaphthalene-2-sulfonamido)-5-(trifluoromethyl) benzoic acid]
Kd [2]: 17.4 ± 0.5 µM
EC50 at 24 h [5]: 61 to 131 µM

Compound: O=C(O)c1cc(Cl)ccc1NS(=O)(=O)c1ccc2c(c1)CCCC2 [Compound 9]
Kd [3]: 41.1 ± 3.1 µM
EC50 at 24 h [5]: 61 to 131 µM

Compound: Cc1ccc(NS(=O)(=O)c2ccc3c(c2)CCCC3)c(C(=O)O)c1 [Compound 10]
Kd [3]: 62.5 ± 4.7 µM
EC50 at 24 h [5]: 61 to 131 µM

Compound: O=C(O)c1cc(Br)ccc1NS(=O)(=O)c1ccc2ccccc2c1 [Compound 11, 5-Bromo-2-(naphthalene-2-sulfonamido) benzoic acid]
Kd [2]: 13.8 µM

Second part, the compound after the results:

Kd [2]: 58.5 µM
Compound: O=C(O)c1cc(Br)ccc1NS(=O)(=O)Cc1ccccc1 [Compound 12, 5-Bromo-2-(phenylmethylsulfonamido)benzoic acid]

Kd [2]: 7.2 µM
Compound: O=C(O)c1cc(Br)ccc1NS(=O)(=O)c1ccc(COc2ccccc2)cc1 [Compound 13, 5-Bromo-2-(4-(phenoxymethyl)phenylsulfonamido)benzoic acid]

Kd [2]: 58.1 ± 2.1 µM
Compound: Cc1cc(C)c(S(=O)(=O)Nc2ccc(Br)cc2C(=O)O)c(C)c1 [Compound 14, 5-Bromo-2-(2,4,6-trimethylphenylsulfoamido)benzoic acid]

Kd [2]: 52.9 ± 1.7 µM
Compound: CC(=O)c1ccc(S(=O)(=O)Nc2ccc(C(F)(F)F)cc2C(=O)O)cc1 [Compound 15, 2-(4-Acetylphenylsulfoamido)-5-(trifluoromethyl)benzoic acid]

Kd [2]: 59.1 ± 1.5 µM
Compound: O=C(O)c1cc(C(F)(F)F)ccc1NS(=O)(=O)c1ccc2c(c1)OCCO2 [Compound 16, 2-(2,3-Dihydrobenzo[b][1,4]dioxine-6-sulfonamido)-5-(trifluoromethyl)benzoic acid]

Kd [2]: 49.5 µM
Compound: Cc1cc(C)c(S(=O)(=O)Nc2ccc(C(F)(F)F)cc2C(=O)O)c(C)c1 [Compound 17, 5-(Trifluoromethyl)-2-(2,4,6-trimethylphenylsulfoamido)benzoic acid]

T Δ S Dvl-3 PDZ ([2]; ITC): 0.4 kcal mol ^-1
Δ H Dvl-3 PDZ ([2]; ITC): -5.9 kcal mol ^-1
Kd [2]: 21.8 µM and 21 µM
T Δ S Dvl-1 PDZ [6]: -0.3 kcal mol ^-1
Δ G Dvl-1 PDZ [6]: -7.0 kcal mol ^-1
Δ H Dvl-1 PDZ [6]: -7.3 kcal mol ^-1
Compound: Cc1ccc(NS(=O)(=O)c2ccc(CNC(=O)c3c[nH]c4ccccc34)c(Cl)c2)c(C(=O)O)c1 [Compound 19]

n (stoichiometry) Dvl-3 PDZ [2]: 0.90 ± 0.08
-tΔS Dvl-3 PDZ ([2]; ITC, Fig. S7): -2.8 kcal/mol
Δ G Dvl-3 PDZ ([2]; ITC, Fig. S7): -5.5 kcal/mol
Δ H Dvl-3 PDZ ([2]; ITC, Fig. S7): -2.7 ± 1.2 kcal/mol
Kd [2]: 79.7 ± 53.3 µM
Compound: O=C(O)c1cccc(S(=O)(=O)Nc2cccc(S(=O)(=O)Nc3ccccc3C(=O)O)c2)c1 [NPL-1011, 3-( {3-[(2-carboxyphenyl)sulfamoyl]phenyl}sulfamoyl)benzoic acid, reference compound]

binding to Dvl-3 PDZ (in words) ([2]; ITC): did not show high-affinity binding
Kd [2]: > 400 µM
Compound: CC(C)[C@H](OC(=O)[C@H](C)NC(=O)[C@@H](OC(=O)[C@H](C)NC(=O)OC(C)(C)C)C(C)C)C(=O)O [NSC668036, reference compound]

n (stoichiometry) Dvl-3 PDZ [2]: 0.97 ±0.14
-tΔS Dvl-3 PDZ ([2]; ITC, Fig. S7): 24.9 kcal/mol
Δ H Dvl-3 PDZ ([2]; ITC, Fig. S7): -31.9 kcal/mol
Compound: CC1=C(CC(=O)O)c2cc(F)ccc2/C1=C\c1ccc([S+](C)[O-])cc1 (centres unmarked) [Sulindac, reference compound]
